Test results taken from US20260293937A1, “SHRIMP FEED AND METHODS OF USE THEREOF” (Organicin Scientific, Inc., priority 2023, published 2026).
Where “and” joins values, the source holds several entries; their conditions need not be identical. Equal values may be shown once. No end group written: not given here.

Test system: Vibrio parahaemolyticus
Assay: Minimum inhibitory concentration by serial two-fold dilution spotted on Vibrio lawns
Type: cell-based
Settings: individual V. parahaemolyticus lines; 37° C., 16 to 20 hours
Procedure: This Example describes the materials and methods, and results of a serial dilution experiment to determine the Minimum Inhibitory Concentration (MIC) of Nisin in reducing a concentration of pathogenic Vibrio.
On the day before the experiment, Vibrio stock were prepared by sterilizing an inoculation loop, cooling the product, and extracting cells. Such extract was incubated at 37° C. for 16 to 20 hours. The density of cells was normalized to a cell density of approximately 10^7 to 10^8 CFU/mL and 100 uL lawns were prepared at a cell density of about 10^6 to 10^7 CFU using sterile glass beads. Four lawns were made so that each Nisin dilution could be tested on two identical plates.
5 μL of two-fold dilutions (See Table 1, below) of Nisin (Immucell; 99% pure), or shrimp feed (without Nisin), citric acid, or DH20 negative controls, respectively, were spotted on the plates, which were incubated at 37° C. for 16 to 20 hours. The minimum inhibitory concentration was determined. In particular, plates were characterized based upon the presence (0) or absence (1) of Vibrio growth.

Nisin: Nisin (Immucell; 99% pure) in Example 1; bacteriocin Nisin in shrimp feed at 0.84, 8.4 and 84 mg/g in Example 2 (ITSISLCTPGCKTGALMGCNMKTATCHCSIHVSK; cysteine pairing not given here; also: lantibiotic, modifications not placed; UniProt P13068 24-57, looked up)
MIC: 1,057.5 ug/mL and 33.1 ug/mL and 66.1 ug/mL and 528.8 ug/mL and 8.3 ug/mL and 1.06 wt/v % and 0.03 wt/v % and 0.07 wt/v % and 0.53 wt/v % and 0.01 wt/v %
